Measurements published in PMC5349880, “P-glycoprotein-mediated chemoresistance is reversed by carbonic anhydrase XII inhibitors” (Oncotarget, 2016).

What was measured:
HT29 cells = assay: Cell viability (neutral red); format: cell-based, human; settings: doxorubicin alone 72 h, IC50 ratio vs doxorubicin + tariquidar 25 nM
HT29/DX cells = assay: Cell viability (neutral red); format: cell-based, human; settings: HT29/DX; doxorubicin alone 72 h; IC50 ratio vs doxorubicin + tariquidar 25 nM
A549 cells = assay: Cell viability (neutral red); format: cell-based, human; settings: A549; doxorubicin alone 72 h; IC50 ratio vs doxorubicin + tariquidar 25 nM
A549/DX cells = assay: Cell viability (neutral red); format: cell-based, human; settings: A549/DX; doxorubicin alone 72 h; IC50 ratio vs doxorubicin + tariquidar 25 nM
MCF7 cells = assay: Cell viability (neutral red); format: cell-based, human; settings: doxorubicin alone 72 h, IC50 ratio vs doxorubicin + tariquidar 25 nM
SKBR3 cells = assay: Cell viability (neutral red); format: cell-based, human; settings: doxorubicin alone 72 h, IC50 ratio vs doxorubicin + tariquidar 25 nM
T74D cells = assay: Cell viability (neutral red); format: cell-based, human; settings: T74D; doxorubicin alone 72 h; IC50 ratio vs doxorubicin + tariquidar 25 nM
MDA-MB-231 cells = assay: Cell viability (neutral red); format: cell-based, human; settings: MDA-MB-231; doxorubicin alone 72 h; IC50 ratio vs doxorubicin + tariquidar 25 nM
TUBO cells = assay: Cell viability (neutral red); format: cell-based, murine; settings: TUBO; doxorubicin alone 72 h; IC50 ratio vs doxorubicin + tariquidar 25 nM
JC cells = assay: Cell viability (neutral red); format: cell-based, murine; settings: JC; doxorubicin alone 72 h; IC50 ratio vs doxorubicin + tariquidar 25 nM
U2OS cells = assay: Cell viability (neutral red); format: cell-based, human; settings: doxorubicin alone 72 h, IC50 ratio vs doxorubicin + tariquidar 25 nM
U2OS/DX cells = assay: Cell viability (neutral red); format: cell-based, human; settings: U2OS/DX; doxorubicin alone 72 h; IC50 ratio vs doxorubicin + tariquidar 25 nM
SaOS cells = assay: Cell viability (neutral red); format: cell-based, human; settings: doxorubicin alone 72 h, IC50 ratio vs doxorubicin + tariquidar 25 nM
SaOS/DX cells = assay: Cell viability (neutral red); format: cell-based, human; settings: SaOS/DX; doxorubicin alone 72 h; IC50 ratio vs doxorubicin + tariquidar 25 nM
[1] = Hematochemical parameters of tumor-bearing animals; settings: doxorubicin 5 mg/kg i.v. alone

`COc1cccc2c1C(=O)c1c(O)c3c(c(O)c1C2=O)C[C@@](O)(C(=O)CO)C[C@@H]3O[C@H]1C[C@H](N)[C@H](O)[C@H](C)O1` [dox, doxorubicin, reference compound] showed a Rf dox (HT29 cells) of 1.39, a Rf dox (HT29/DX cells) of 4.26 and a Rf dox (A549 cells) of 1.31. The Rf dox (A549/DX cells) was 4.45, the Rf dox (MCF7 cells) was 1.32 and the Rf dox (SKBR3 cells) was 2.19. It also gave a Rf dox (T74D cells) of 0.98, a Rf dox (MDA-MB-231 cells) of 4.55 and a Rf dox (TUBO cells) of 4.23. For the same molecule, the Rf dox (JC cells) was 7.61, the Rf dox (U2OS cells) was 1.05 and the Rf dox (U2OS/DX cells) was 15.44. It also gave a Rf dox (SaOS cells) of 1.43, a Rf dox (SaOS/DX cells) of 14.97 and an ALT [1] of 37 ± 16 U/l. The AST [1] was 288 ± 72 U/l, the CPK [1] was 673 ± 172 U/l and the Creatinine [1] was 0.029 ± 0.017 mg/L. It also gave an LDH [1] of 6272 ± 812 U/l.
